Several values for one entry are separate records, joined by “and”; a condition that tells them apart may be missing. Equal entries are not always repeated. Where two headings read alike, the source gives them in different places.
Tests used:
[1] = target: T1, eIF1A (Homo sapiens, UniProt P47813); type: binding; conditions: for fluorescence ratio, eIF1A: background-corrected, relative to DMSO or lowest 1Ai concentration, replicate columns; for WT eIF1A IC50: fluorescence binding; for IC50 concentration (µM), WT eIF1A: summary table, fluorescence binding assay
T1 construct: His-bdSUMO (cleaved yes); made in house; host or cells: E. coli BL-21
T1 sequence (P47813 whole entry): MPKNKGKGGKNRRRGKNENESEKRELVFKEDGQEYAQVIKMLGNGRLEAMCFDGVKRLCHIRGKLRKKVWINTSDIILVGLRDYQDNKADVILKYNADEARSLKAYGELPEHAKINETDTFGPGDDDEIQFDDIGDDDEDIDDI

[2] = target: T2, RPS10 (Homo sapiens, UniProt P46783); type: binding
T2 construct: made in house; host or cells: E. coli BL-21

[3] = system: CUG/GUG vs AUG start codon luciferase reporters in HEK293T cells; assay: Near-cognate AUG starting codon fidelity reporter assay (GUG, CUG vs AUG); type: cell-based; conditions: for average CUG and GUG / average CUG and GUG relative to DMSO / CUG Average / GUG Average: NUG experiment; for CUG Average: CUG vs AUG reporter; for GUG Average: GUG vs AUG reporter; for NUG (Final data, Fig. 1E): average CUG and GUG relative to DMSO, 20 µM overnight; for GUG vs AUG data (%) / GUG vs AUG (%) Average: compound at 20uM; for GUG vs AUG data (%): individual repeat; for GUG vs AUG (%) Average: summary average of repeats, DMSO control average […]
Experimental: We next considered the importance of eIF1A in controlling start codon fidelity in yeast and mammalian cells (Martin-Marcos et al, [2011]; Martin-Marcos et al, [2017]; Sehrawat et al, [2019]; She et al, [2023]) and tested how inhibition of eIF1A by 1Ais affects the initiation from near-cognate AUG. The effect of 1Ais was analyzed using firefly luciferase reporters bearing either AUG (control), CUG, or GUG as the exclusive translation initiation sites. Co-transfected GFP reporter served as an internal control for transfection efficiency.
For the near-cognate AUG Starting codon fidelity reporter assay, HEK293T cells were transfected with 100 ng of the previously described luciferase reporter constructs driven either by AUG, CUG, and GUG (Tang et al, [2017]) together with GFP expressing plasmid (20 ng) as normalizing control. Luciferase and GFP levels were determined as described above.
Appendix Figure S1: (A) HEK293T cells were transfected with Luciferase reporter genes with either CUG or AUG as their exclusive starting codon. 6 hours after transfection, cells were exposed to 1Ais, and the luminescence from all constructs was measured after overnight incubation. Bars represent the ratio between luminescence from the AUG starting codon and CUG after normalization with co-transfected GFP; Error bars represent SEM, * denotes p<0.05 (T-test comparing to DMSO control), n=≥4 independent biological replicates.

[4] = system: cap-proximal AUG GFP reporter in HEK293T cells; type: cell-based; conditions: GFP WB densitometry; 20 µM overnight; dmso 0.965946
Excerpt: Translation from an AUG preceded by a very short 5'UTR (less than 30 nt) is usually inefficient and frequently bypassed, resulting in initiation from a downstream AUG, a phenomenon known as leaky scanning. […] To examine the impact of 1Ais on short 5'UTR initiation, we used a GFP reporter gene containing an AUG located 16 nt downstream from the 5' end followed by a second in-frame downstream AUG (Fig. 1F; Appendix Fig. S1B). Cells were transfected with this GFP reporter gene followed by exposure to DMSO (vehicle) and 1Ais. Initiations from upstream (US) or downstream (DS) AUGs were determined by western blot (WB) with anti-GFP antibodies and the ratio between the US and DS AUG was determined.
For the analysis of translation from very short 5'UTR and Leaky scanning, HEK293T cells were transfected with a GFP (20 ng/well) reporter gene driven by a cap-proximal and downstream AUGs (Elfakess et al, [2011]) together with a luciferase reporter gene (100 ng/well) as normalizing control and treated with 20 µM of 1Ais as described above. GFP levels were determined by Western blot (WB) (GFP antibody, Abcam #ab290) and quantified by densitometry (ImageJ) and normalized to the measured luciferase activity.
HEK293T cells were transfected with the GFP reporter gene schematically shown on the top. The first
AUG is […] from the 5’ end and the downstream AUG is in the same frame. Six hours after transfection, cells were treated with 1Ais. After overnight exposure to 1Ais, GFP expression was analyzed by WB using anti -GFP antibodies.
US/DS ratio was determined by densitometry and represents the long protein expression (upstream AUG, US) vs the […]
biological replicates. (C-D) Analysis of reporter genes mRNA levels after 1Ais treatment.

[5] = system: IRF7 5'UTR firefly luciferase reporter in HEK293T cells; conditions: 20 µM; for Reference vs IRF7 (Final data, Fig. 1E): 1/Result, relative to DMSO; for LONG (summary - All), normalized to DMSO / SHORT (summary - All), normalized to DMSO: individual replicates, outliers excluded, DMSO = 1; for SHORT (summary - All), normalized to DMSO: Short reporter; for average ( long vs short ratio): summary - All;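 on all read-outs here: luciferase signal corrected by a co-transfected GFP reporter for transfection efficiency, read after overnight compound exposure, with Long and Short reporters differing in 5'UTR length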
Experimental: For the effect on ribosomal scanning, we used two firefly luciferase reporter genes that differ in their 5'UTR length (Fig. 1C). […] Cells were transfected with these reporters along with a GFP reporter gene used to normalize transfection efficiency. After an overnight 1Ai or DMSO (vehicle control) exposure, luciferase and GFP expression were measured, and normalized activity was determined.
For the reference vs IRF7 5'UTR luciferase reporter assay, HEK239T cells in a 12-well plate were transfected with the previously described IRF7 5'UTR or reference firefly luciferase reported genes (Sehrawat et al, [2019]) (100 ng/well) together with GFP (20 ng/well) that served as an internal control by CaCl2 transfection. After 6 h, half of the growth medium was replaced with a medium containing the different compounds, reaching a final concentration of 20 µM. Twenty-four hours after transfection, transfection efficiency was evaluated using GFP fluorescence intensity (Cytation 5, ex/em: 470/525). Cells were harvested in 50 µL Reported lysis buffer (RLB) and put on a shaker for 10 min. From each well 5 µL were taken in duplicates and tested by luminometer.

[6] = summary table, fluorescence binding assay, read-out: IC50 concentration (µM), RPS10

Row | Structure (SMILES) | fluorescence ratio, eIF1A ([1]; 1Ai conc. 0.25 uM) | fluorescence ratio, eIF1A ([1]; 1Ai conc. 0.5 uM) | fluorescence ratio, eIF1A ([1]; 1Ai conc. 1 uM) | fluorescence ratio, eIF1A ([1]; 1Ai conc. 2 uM) | fluorescence ratio, eIF1A ([1]; 1Ai conc. 4 uM) | fluorescence ratio, eIF1A ([1]; 1Ai conc. 8 uM) | fluorescence ratio, eIF1A ([1]; 1Ai conc. 16 uM) | fluorescence ratio, eIF1A ([1]; 1Ai conc. 32 uM) | fluorescence ratio, eIF1A ([1]; 1Ai conc. 64 uM) | fluorescence ratio, eIF1A ([1]; 1Ai conc. 256 uM) | WT eIF1A IC50 [1] | IC50 concentration (µM), WT eIF1A [1] | IC50 [2, 6] [µM] | average CUG and GUG [3] | average CUG and GUG relative to DMSO [3] | CUG Average [3] | GUG Average [3] | NUG (Final data, Fig. 1E) [3] | GUG vs AUG data (%) [3] | GUG vs AUG (%) Average [3] [%] | other results
1 | O=S(=O)(c1ccccc1)N1CCN(C2c3ccccc3-c3ccccc32)CC1 [1Ai-9025] | 0.9827 and 0.9579 | 0.9655 and 0.9562 | 0.9303 and 0.9366 | 0.9516 and 0.9059 | 0.9297 and 0.9235 | 0.9058 and 0.9493 | 0.9688 and 0.9828 | 0.9874 and 1.077 | 1.153 and 1.164 | 1.25 and 1.3257 | No binding | No binding | 4.8 | 4.366 | 0.9681 | 6.84 | 1.892 | 0.968 | 2.56% and 1.57% and 2.32% and 1.11% | 1.89 | US/DS ratio, average [4]: 0.7517; Reference vs IRF7 (Final data, Fig. 1E) [5]: 1.762; LONG (summary - All), normalized to DMSO ([5]; Long reporter): 0.59 and 0.94 and 0.66 and 0.50; SHORT (summary - All), normalized to DMSO [5]: 1.30 and 0.73 and 1.51; Long: Normalized to average DMSO ([5]; data section, Long reporter, GFP-corrected, per experiment, includes values excluded as outliers): 0.5873 and 0.9413 and 0.6597 and 0.4965; average ( long vs short ratio) [5]: 0.568
2 | C=CCNC(=O)CN1CCN(Cc2nc3cc(-c4ccc(Cl)cc4)sc3c(=O)[nH]2)CC1 [1Ai-1524] | 1.099 and 1 | 1.123 and 1.057 | 1.12 and 1.013 | 1.158 and 0.9647 | 1.086 and 0.8847 | 0.9254 and 0.8076 | 0.9496 and 0.7767 | 1.01 and 0.848 | 0.9931 and 0.7702 | 1.036 and 1.149 | No binding | No binding | 16.8 | 7.9532 | 1.763 | 12.0643 | 3.842 | 1.763 | 4.35% and 2.64% and 2.99% and 5.39% | 3.84 | RPS10 fluorescence ratio to control ([2]; 1Ai conc. 0.25 uM): 1.173; RPS10 fluorescence ratio to control ([2]; 1Ai conc. 0.5 uM): 1.067; RPS10 fluorescence ratio to control ([2]; 1Ai conc. 1 uM): 0.76; RPS10 fluorescence ratio to control ([2]; 1Ai conc. 2 uM): 0.8336; RPS10 fluorescence ratio to control ([2]; 1Ai conc. 4 uM): 0.607; RPS10 fluorescence ratio to control ([2]; 1Ai conc. 8 uM): 0.7612; RPS10 fluorescence ratio to control ([2]; 1Ai conc. 16 uM): 0.4083; RPS10 fluorescence ratio to control ([2]; 1Ai conc. 32 uM): 0.3654; RPS10 fluorescence ratio to control ([2]; 1Ai conc. 64 uM): 0.4197; RPS10 fluorescence ratio to control ([2]; 1Ai conc. 256 uM): 0.05131; IC50 ([2]; read-out: IC50 (line under RPS10 binding data)): 16.8 µM; IC50 ([2]; read-out: RPS10 IC50): 16.8 µM; CUG vs AUG (%) ([3]; CUG start codon reporter relative to AUG reporter (AUG = 100), compound at 20uM (summary head), single-experiment calculation): 6.424%; GUG vs AUG (%) ([3]; GUG start codon reporter relative to AUG reporter (AUG = 100), compound at 20uM (summary head), single-experiment calculation): 0.742%; US/DS ratio, average [4]: 0.7201; Reference vs IRF7 (Final data, Fig. 1E) [5]: 1.878; LONG (summary - All), normalized to DMSO ([5]; Long reporter): 0.62 and 0.21 and 0.43 and 0.52; SHORT (summary - All), normalized to DMSO [5]: 0.50 and 0.66 and 0.41; average ( long vs short ratio) [5]: 0.848

Reference: PMC12216609, “Inhibitors of eIF1A-ribosome interaction unveil uORF-dependent regulation of translation initiation and antitumor and antiviral effects” (The EMBO Journal, 2025)
